Patent US5138101A, “Recovery of high-boiling aldehydes from rhodium-catalyzed hydroformylation processes” (Eastman Kodak Company, priority 1991, dated 1992)
Read-outs that look alike come from different tables or passages of the source.

Columns and labels:
[1] = cited from earlier work
[2] = Partitioning (partition coefficient, Kp) of hydroformylation products and hydroformylation solvent between hydroformylation solvent phase and alkanol/water extraction solution phase; type: physicochemical
Source text: The extraction process described herein is the equilibration of a particular compound dissolving into two separate liquid phases. The effectiveness of the present extraction process may be measured in terms of the partition coefficient (Kp) for a compound "X" which is defined as: [formula] […] High Kp values give high extraction efficiencies requiring lower amounts of extraction solution. Similarly, it is desirable that the Kp of the hydroformylation solvent be a low value. This simplifies purification of the aldehyde products down-stream. In the hydroformylation of diolefins to dialdehydes, it also is desirable to have Kp values for the dialdehyde products larger than the Kp values of the intermediate mono-aldehyde mono-olefin (formyl-olefin) intermediate formed in the hydroformylation reaction. This permits recycling of the formyl-olefin to the hydroformylation reactor in the hydroformylation solvent for further reaction to the desired dialdehyde product, while selectively extracting the desired di-aldehyde product. Likewise, for the same reason, it is desirable to have low Kp values for the olefin or polyolefin feedstocks used in the process.
The extraction examples were carried out in a 300 mL, 3-neck, glass flask equipped with a Teflon magnetic stir bar, a thermometer to measure the temperature of the liquid, a septum for the use of a syringe, a heating mantle and a nitrogen bubbler blanket for the system. […] […] The mixture was stirred at 25° C. for 30 minutes to reach equilibrium, stirring was stopped, and the mixture was allowed to separate into 2 layers (phases) over a 30 minute period of time. […] Samples of each phase were taken with a syringe and chromatographed on a Hewlett Packard Model 5730 capillary FID gas chromatograph. The instrument used a 30 meter DB-1 column (Supelco.) with a programming rate of a 4 minute hold at 70° C. with a programming rate of 8° C./minute to 250° C. The calculations for the weights of hydroformylation products in each phase were carried out using standard procedures using the dodecane as an internal standard for the catalyst layer and methanol as the internal standard for the aqueous layer. The initial volumes of the two phases were used for estimation of the volumes of the two phases at equilibrium to obtain the concentrations of the products in each phase.
The partition coefficients (Kp) were calculated for the C9-enal and C10-dial products for equilibrium between the dodecane hydroformylation solvent and the extraction solution phases at 25° C.
The two phases in the flask were heated to and maintained at 53° C. with stirring for 30 minutes to reach equilibrium. The mixture was allowed to separate into 2 layers at 53° C. and each layer was sampled and analyzed as described above. […] The partitioning procedure was repeated at 70° C.

In the case of `[Rh]` [Rh, rhodium], the “Rhodium extracted into the aqueous phase” value ([1]; 4-hydroxybutyraldehyde 38 percent by weight, U.S. Pat. No. 4,678,857) is listed as 5 mg of rhodium per liter and the “Rhodium extracted into the aqueous phase” value ([1]; aqueous 2-N,N-dimethylaminoethanol, U.S. Pat. No. 4,292,196) is listed as 70%.

With `CC(C)c1ccc(C(C)C)cc1` [p-diisopropylbenzene] the “Partition Coefficient” value ([2]; Example 3, Ref. Ex. 19, MeOH:water 3:1, 29° C.) was 0.075, the “Partition Coefficient” value ([2]; Example 4, Ref. Ex. 19, MeOH:water 3:1, 58° C.) was 0.118 and the “Partition Coefficient” value ([2]; Example 5, Ref. Ex. 19, MeOH:water 1.5:1, 58° C.) was 0.050. The “Partition Coefficient” value ([2]; Example 6, Ref. Ex. 19, MeOH:water 1.5:1, 31° C.) was 0.018, the “Partition Coefficient” value ([2]; Example 18, Ref. Ex. 24, EtOH:water 7:4, 52° C.) was 0.033 and the “Partition Coefficient” value ([2]; Example 19, Ref. Ex. 24, EtOH:water 7:4, 32° C.) was 0.009. The “Partition Coefficient” value ([2]; Example 24, Ref. Ex. 19, MeOH:water 3:1, 29° C.) was 0.075, the “Partition Coefficient” value ([2]; Example 25, Ref. Ex. 19, MeOH:water 3:1, 58° C.) was 0.118 and the “Partition Coefficient” value ([2]; Example 26, Ref. Ex. 19, MeOH:water 1.5:1, 58° C.) was 0.050. For the same molecule, the “Partition Coefficient” value ([2]; Example 27, Ref. Ex. 19, MeOH:water 1.5:1, 31° C.) was 0.018, the “Partition Coefficient” value ([2]; Example 28, Ref. Ex. 24, EtOH:water 3:1, 48° C.) was 0.298 and the “Partition Coefficient” value ([2]; Example 29, Ref. Ex. 24, EtOH:water 3:1, 33° C.) was 0.229. For the same molecule, the “Partition Coefficient” value ([2]; Example 30, Ref. Ex. 24, EtOH:water 7:4, 52° C.) was 0.033, the “Partition Coefficient” value ([2]; Example 31, methanol/water 37/12 mL, 50° C., Na 0) was 0.096 and the “Partition Coefficient” value ([2]; Example 32, 50° C., Na 82 mg/L as 2-ethylhexanoate) was 0.125. The “Partition Coefficient” value ([2]; Example 33, 50° C., Na 164 mg/L as 2-ethylhexanoate) was 0.115, the “Partition Coefficient” value ([2]; Example 34, 50° C., Na 327 mg/L as 2-ethylhexanoate) was 0.131 and the “Partition Coefficient” value ([2]; Example 35, 50° C., Na 653 mg/L as 2-ethylhexanoate) was 0.137. The “Partition Coefficient” value ([2]; Example 36, 50° C., Na 1307 mg/L as 2-ethylhexanoate) was 0.063, the “Partition Coefficient” value ([2]; Example 37, methanol/water 37/12 mL, 50° C., Na 0) was 0.064 and the “Partition Coefficient” value ([2]; Example 38, 50° C., Na 82 mg/L as oleate) was 0.083. The “Partition Coefficient” value ([2]; Example 39, 50° C., Na 164 mg/L as oleate) was 0.062, the “Partition Coefficient” value ([2]; Example 40, 50° C., Na 327 mg/L as oleate) was 0.083 and the “Partition Coefficient” value ([2]; Example 41, 50° C., Na 653 mg/L as oleate) was 0.052. For the same molecule, the “Partition Coefficient” value ([2]; Example 42, 50° C., Na 1307 mg/L as oleate) was 0.063, the “Partition Coefficient” value ([2]; Example 43, methanol/water 37/12 mL, 50° C., Na 0) was 0.074 and the “Partition Coefficient” value ([2]; Example 44, 50° C., Na 82 mg/L as n butyrate) was 0.063. For the same molecule, the “Partition Coefficient” value ([2]; Example 45, 50° C., Na 164 mg/L as n butyrate) was 0.073, the “Partition Coefficient” value ([2]; Example 46, 50° C., Na 327 mg/L as n butyrate) was 0.053 and the “Partition Coefficient” value ([2]; Example 47, 50° C., Na 653 mg/L as n butyrate) was 0.051. For the same molecule, the “Partition Coefficient” value ([2]; Example 48, 50° C., Na 1307 mg/L as n butyrate) was 0.038, the “Partition Coefficient” value ([2]; Example 49, methanol/water 37/27 mL, Na 0) was 0.0164 and the “Partition Coefficient” value ([2]; Example 50, methanol/water 37/27 mL, Na 100 as oleate) was 0.0210. For the same molecule, the “Partition Coefficient” value ([2]; Example 51, methanol/water 37/27 mL, Na 200 as oleate) was 0.0210, the “Partition Coefficients” value ([2]; Example 52, Ref. Ex. 1, MeOH:water 3:1, 50° C., Na 0) was 0.115 and the “Partition Coefficients” value ([2]; Example 54, Ref. Ex. 1, Na 164 mg/L) was 0.073. For the same molecule, the “Partition Coefficients” value ([2]; Example 56, Ref. Ex. 11, Na 0) was 0.081, the “Partition Coefficients” value ([2]; Example 58, Ref. Ex. 11, Na 164 mg/L) was 0.073 and the “Partition Coefficients” value ([2]; Example 60, Ref. Ex. 12, Na 0) was 0.071. For the same molecule, the “Partition Coefficients” value ([2]; Example 62, Ref. Ex. 12, Na 164 mg/L) was 0.067, the “Partition Coefficients” value ([2]; Example 64, Ref. Ex. 7, Na 0) was 0.056 and the “Partition Coefficients” value ([2]; Example 66, Ref. Ex. 7, Na 164 mg/L) was 0.072. For the same molecule, the “Partition Coefficients” value ([2]; Example 68, Ref. Ex. 13, Na 0) was 0.076, the “Partition Coefficients” value ([2]; Example 70, Ref. Ex. 13, Na 164 mg/L) was 0.060 and the “Partition Coefficient” value ([2]; Example 79, VCH product, Ref. Ex. 3, 40 mL methanol, 10 mL water, 50° C.) was 0.0859. For the same molecule, the “Partition Coefficient” value ([2]; Example 80, as Example 79 plus 10 mL water) was 0.0233, the “Partition Coefficient” value ([2]; Example 81, as Example 80 plus 10 mL water) was 0.0050 and the “Partition Coefficient” value ([2]; Example 82, as Example 81 plus 10 mL water) was 0.0017. For the same molecule, the “Partition Coefficient” value ([2]; Example 83, DCPD product, Ref. Ex. 4, procedure of Examples 79-82) was 0.0724, the “Partition Coefficient” value ([2]; Example 84, DCPD product, Ref. Ex. 4, procedure of Examples 79-82) was 0.0469 and the “Partition Coefficient” value ([2]; Example 85, DCPD product, Ref. Ex. 4, procedure of Examples 79-82) was 0.0269. The “Partition Coefficient” value ([2]; Example 86, CDDT product, Ref. Ex. 2, 37 mL methanol, 12 mL water, 25° C.) was 0.0297, the “Partition Coefficient” value ([2]; Example 87, as Example 86 plus 10 mL methanol) was 0.077 and the “Partition Coefficient” value ([2]; Example C-7, Ref. Ex. 19, DEG:water 3:1, 30° C.) was 0.128. The “Partition Coefficient” value ([2]; Example C-8, Ref. Ex. 19, DEG:water 1.5:1, 25° C.) was 0.030, the “Partition Coefficient” value ([2]; Example C-9, Ref. Ex. 10, PrOH:water 3:1, 50° C.) was 0.055 and the “Partition Coefficient” value ([2]; Example C-10, Ref. Ex. 10, PrOH:water 1.5:1, 50° C.) was 0.018. The “Partition Coefficient” value ([2]; Example C-11, Ref. Ex. 10, PrOH:water 1:1, 50° C.) was 0.013, the “Partition Coefficient” value ([2]; Example C-16, Ref. Ex. 19, DEG, no water, 58° C.) was 0.128 and the “Partition Coefficient” value ([2]; Example C-17, Ref. Ex. 19, DEG, no water, 33° C.) was 0.128. The “Partition Coefficient” value ([2]; Example C-18, Ref. Ex. 19, DEG:water 3:1, 30° C.) was 0.030, the “Partition Coefficient” value ([2]; Example C-19, Ref. Ex. 19, DEG:water 3:1, 60° C.) was 0.014 and the “Partition Coefficient” value ([2]; Example C-20, Ref. Ex. 19, DEG:water 1.5:1, 60° C.) was 0.0061. For the same molecule, the “Partition Coefficient” value ([2]; Example C-21, Ref. Ex. 19, DEG:water 1.5:1, 25° C.) was 0.0030, the “Partition Coefficient” value ([2]; Example C-22, Ref. Ex. 10, PrOH:water 3:1, 50° C.) was 0.055 and the “Partition Coefficient” value ([2]; Example C-23, Ref. Ex. 10, PrOH:water 1.5:1, 50° C.) was 0.0182. The “Partition Coefficient” value ([2]; Example C-24, Ref. Ex. 10, PrOH:water 1:1, 50° C.) was 0.0132.
